Molecules are shown by their SMILES. The source made the active and inactive calls. The calls are words filed in the database; no cut-off is given here.

Data set [1] has as its target T1, Complement C5 (Homo sapiens, UniProt P01031). The experiment in a line: Binding affinity to C5a (unknown origin) at 10 uM by FT-IR analysis. The note with it: filed as modulator.
In data set [2] the test system is Erythrocyte. The experiment in a line: Hemolytic activity against human erythrocytes at 0.19 to 100 uM incubated for 1 hr by absorbance based assay. To be noted: dose 0.19-100 µM. In kind it is toxicity, cell-based.
In data set [3] the target is T1, Complement C5. The experiment in a line: Binding affinity to C5a (unknown origin) assessed as tryptophan lifetime by TCSPC analysis (reference value: 2.70 +/- 0.03 nanoseconds). To be noted: filed as modulator.
In data set [4] the target is T1, Complement C5. The data set is described as follows: Binding affinity to C5a (unknown origin) assessed as dissociation constant by fluorescence quenching analysis.
Data set [5] addresses T2, C5a anaphylatoxin chemotactic receptor 2 (Homo sapiens, UniProt Q9P296). The data set is described as follows: Binding affinity to N-terminal peptide SR13 of C5aR2 (14 to 32 residues)(unknown origin) assessed as dissociation constant by fluorescence based analysis.
In data set [6] the target is T3, C5a anaphylatoxin chemotactic receptor 1 (Homo sapiens, UniProt P21730).
T3 sequence (P21730 whole entry): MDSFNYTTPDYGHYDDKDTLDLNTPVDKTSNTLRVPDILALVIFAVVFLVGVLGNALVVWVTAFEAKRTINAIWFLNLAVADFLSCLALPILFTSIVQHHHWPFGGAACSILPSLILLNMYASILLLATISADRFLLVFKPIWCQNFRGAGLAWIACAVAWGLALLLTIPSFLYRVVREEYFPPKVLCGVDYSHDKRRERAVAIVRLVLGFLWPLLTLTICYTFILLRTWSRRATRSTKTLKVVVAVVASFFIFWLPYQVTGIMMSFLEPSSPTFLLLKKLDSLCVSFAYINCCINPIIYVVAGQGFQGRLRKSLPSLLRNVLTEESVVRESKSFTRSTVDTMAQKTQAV
The data set is described as follows: Binding affinity to N-terminal peptide SR3 of C5aR1 (1 to 28 residues)(unknown origin) assessed as dissociation constant by fluorescence based analysis.

Data set [7] has as its target T2, C5a anaphylatoxin chemotactic receptor 2. The experiment in a line: Binding affinity to N-terminal peptide SR12 of C5aR2 (6 to 32 residues)(unknown origin) assessed as dissociation constant by fluorescence based analysis.
The subject of data set [8] is HeLa. The experiment in a line: Cytotoxicity against human HeLa cells assessed as cellular viability at 0.19 to 100 uM incubated for 18 hrs by MTT assay. It counts as toxicity, cell-based. The note with it: dose 0.19-100 µM. A general note: Tetrazolium assays rely on reduction of a dye to a coloured formazan, in cell work by metabolically active cells.
The target in data set [9] is T1, Complement C5. The data set is described as follows: Binding affinity to C5a (unknown origin) at 2 mM by 1H NMR analysis. To be noted: filed as modulator.
Data set [10] has as its target T1, Complement C5. The data set is described as follows: Binding affinity to C5a (unknown origin) assessed as change in near-UV CD signature at 50 uM. To be noted: filed as modulator.
The test system of data set [11] is HEK293. The data set is described as follows: Cytotoxicity against human HEK293 cells assessed as cellular viability at 0.19 to 100 uM incubated for 18 hrs by MTT assay. It counts as toxicity, cell-based. The note with it: hek293, 18 h, dose 0.19-100 µM.
For data set [12], the target named is T1, Complement C5. The data set is described as follows: Binding affinity to C5a (unknown origin) assessed as dissociation constant incubated for 1 hr by CD analysis.
In data set [13] the target is T3, C5a anaphylatoxin chemotactic receptor 1. The data set is described as follows: Binding affinity to N-terminal peptide SR5 of C5aR1 (1 to 28 residues)(unknown origin) assessed as dissociation constant by fluorescence based analysis.
The target of data set [14] is trypsin (Homo sapiens, UniProt P07477+P07478+P35030). The experiment in a line: Induction of trypsin (unknown origin)-mediated proteolysis of compound incubated for 4 hrs by LC-HRMS spectroscopy. It counts as protein assay. To be noted: trypsin (enzyme incubation), read-out: Activity.

T2 sequence (Q9P296 whole entry, the tested form may be a part): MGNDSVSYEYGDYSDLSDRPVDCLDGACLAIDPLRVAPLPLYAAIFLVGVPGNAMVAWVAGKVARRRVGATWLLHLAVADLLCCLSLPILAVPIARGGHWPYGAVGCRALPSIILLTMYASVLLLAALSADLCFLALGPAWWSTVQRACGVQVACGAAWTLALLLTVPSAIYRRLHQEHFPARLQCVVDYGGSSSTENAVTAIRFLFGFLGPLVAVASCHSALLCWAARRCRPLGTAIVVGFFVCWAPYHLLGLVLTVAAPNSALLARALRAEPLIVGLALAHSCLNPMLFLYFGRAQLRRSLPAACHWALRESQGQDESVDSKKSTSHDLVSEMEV

What is called Kd is the concentration at which binding is half-saturated. Consider `CC[C@H](C)[C@H](NC(=O)[C@H](CO)NC(=O)[C@H](CCC(=O)O)NC(=O)[C@H](CCCNC(=N)N)NC(=O)[C@@H]1CCCN1C(=O)[C@H](Cc1ccccc1)NC(=O)[C@H](CC(=O)O)NC(=O)[C@H](CCCNC(=N)N)NC(=O)[C@H](CCCCN)NC(=O)[C@H](Cc1c[nH]c2ccccc12)NC(=O)[C@H](CCSC)NC(=O)[C@H](CCC(=O)O)NC(=O)[C@H](CC(=O)O)NC(=O)[C@H](CC(C)C)NC(=O)CNC(=O)[C@@H]1CCCN1C(=O)[C@H](Cc1ccc(O)cc1)NC(=O)[C@H](CCC(N)=O)NC(=O)[C@H](CC(=O)O)NC(=O)[C@H](CCCNC(=N)N)NC(=O)[C@@H](NC(=O)[C@H](Cc1cnc[nH]1)NC(=O)[C@H](CCC(=O)O)NC(=O)[C@H](CC(N)=O)NC(=O)[C@H](CC(C)C)NC(C)=O)C(C)C)C(=O)N[C@@H](CCCNC(=N)N)C(=O)N[C@H](C(=O)N[C@@H](Cc1cnc[nH]1)C(=O)N[C@H](C(=O)N[C@@H](C)C(N)=O)[C@@H](C)O)[C@@H](C)O`, for which the outcome in data set [1], in data set [9] and in [10] was Active. Besides, the Activity entry in data set [2], in [8] and in data set [11] was “Non-Toxic” in each case. Further, in [3], the Time amounted to 1.99 nanoseconds. For the same molecule, the Kd turned out to be 820 nM in data set [4]; 299 nM in data set [5]; 126 nM in data set [6]; 203 nM in data set [7]; 940 nM in [12]; 105 nM in [13].
As to `CC[C@H](C)[C@H](NC(=O)[C@H](CO)NC(=O)[C@@H](CCC(=O)O)NC(=O)[C@H](CCCNC(=N)N)NC(=O)[C@@H]1CCCN1C(=O)[C@@H](Cc1ccccc1)NC(=O)[C@H](CC(=O)O)NC(=O)[C@@H](CCCNC(=N)N)NC(=O)[C@H](CCCCN)NC(=O)[C@H](Cc1c[nH]c2ccccc12)NC(=O)[C@H](CCSC)NC(=O)[C@@H](CCC(=O)O)NC(=O)[C@H](CC(=O)O)NC(=O)[C@H](CC(C)C)NC(=O)CNC(=O)[C@H]1CCCN1C(=O)[C@H](Cc1ccc(O)cc1)NC(=O)[C@H](CCC(N)=O)NC(=O)[C@@H](CC(=O)O)NC(=O)[C@H](CCCNC(=N)N)NC(=O)[C@@H](NC(=O)[C@H](Cc1cnc[nH]1)NC(=O)[C@@H](CCC(=O)O)NC(=O)[C@H](CC(N)=O)NC(=O)[C@H](CC(C)C)NC(C)=O)C(C)C)C(=O)N[C@@H](CCCNC(=N)N)C(=O)N[C@H](C(=O)N[C@@H](Cc1cnc[nH]1)C(=O)N[C@H](C(=O)N[C@@H](C)C(N)=O)[C@@H](C)O)[C@@H](C)O`, the result in [1], in data set [9] and in [10] was Active. The Activity result in [2], in data set [8] and in [11] was “Non-Toxic” each time. The Kd in data set [4] amounted to 880 nM; in data set [5], 299 nM; in [6], 126 nM; in data set [7] it was 203 nM; in [12], 700 nM; in data set [13], 105 nM. In [14], the metabolised at 4 h was 0%.

The values above are taken from ChEMBL document CHEMBL5576118, “Structure of Designer Antibody-like Peptides Binding to the Human C5a with Potential to Modulate the C5a Receptor Signaling” (J Med Chem, 2024).
